Reference: US9809578B2, “Pyrazolyl urea, thiourea, guanidine and cyanoguanidine compounds as trkA kinase inhibitors” (Array BioPharma Inc., priority 2012, dated 2017)

What was measured:
Format in all cases: biochemical
Details in all cases: 10 μM, ATP near Km
Plk2 = target: T1, Plk2 (Homo sapiens, UniProt Q9NYY3); test: KinaseProfiler Plk2
T1 construct: purchased Millipore, Inc. (KinaseProfiler service)
Text: (§1) The compound was run in duplicate at a concentration of ATP near the Km for each individual kinase according to Millipore's specifications.

Fms = target: T2, Fms (Homo sapiens, UniProt P07333); test: KinaseProfiler Fms
T2 construct: purchased Millipore, Inc. (KinaseProfiler service)
Text: as §1

PKCepsilon = target: T3, PKCepsilon (Homo sapiens, UniProt Q02156); test: KinaseProfiler PKCepsilon
T3 construct: purchased Millipore, Inc. (KinaseProfiler service)
Text: as §1

p38alpha = target: T4, p38alpha (Homo sapiens, UniProt Q16539); test: KinaseProfiler p38alpha
T4 construct: purchased Millipore, Inc. (KinaseProfiler service)
Text: as §1

Rsk1 = target: T5, Rsk1 (Homo sapiens, UniProt Q15418); test: KinaseProfiler Rsk1
T5 construct: purchased Millipore, Inc. (KinaseProfiler service)
Text: as §1

PAK4 = target: T6, PAK4 (Homo sapiens, UniProt O96013); test: KinaseProfiler PAK4
T6 construct: purchased Millipore, Inc. (KinaseProfiler service)
Text: as §1

Axl = target: T7, Axl (Homo sapiens, UniProt P30530); test: KinaseProfiler Axl
T7 construct: purchased Millipore (KinaseProfiler service)
Text: as §1

FGFR2 = target: T8, FGFR2 (Homo sapiens, UniProt P21802); test: KinaseProfiler FGFR2
T8 construct: purchased Millipore, Inc. (KinaseProfiler service)
Text: as §1

DCAMKL2 = target: T9, DCAMKL2 (Homo sapiens, UniProt Q8N568); test: KinaseProfiler DCAMKL2
T9 construct: purchased Millipore, Inc. (KinaseProfiler service)
Text: as §1

IKKalpha = target: T10, IKKalpha (Homo sapiens, UniProt O15111); test: KinaseProfiler IKKalpha
T10 construct: purchased Millipore, Inc. (KinaseProfiler service)
Text: as §1

ERK2 = target: T11, ERK2 (Homo sapiens, UniProt P28482); test: KinaseProfiler ERK2
T11 construct: purchased Millipore, Inc. (KinaseProfiler service)
Text: as §1

MAP4K2 = target: T12, MAP4K2 (Homo sapiens, UniProt Q12851); test: KinaseProfiler MAP4K2
T12 construct: purchased Millipore, Inc. (KinaseProfiler service)
Text: as §1

IR Activated = target: T13, IR Activated (Homo sapiens, UniProt P06213); test: KinaseProfiler IR Activated
T13 construct: purchased Millipore, Inc. (KinaseProfiler service)
Text: as §1

CK1gamma3 = target: T14, CK1gamma3 (Homo sapiens, UniProt Q9Y6M4); test: KinaseProfiler CK1gamma3
T14 construct: purchased Millipore, Inc. (KinaseProfiler service)
Text: as §1

TBK1 = target: T15, TBK1 (Homo sapiens, UniProt Q9UHD2); test: KinaseProfiler TBK1
T15 construct: purchased Millipore, Inc. (KinaseProfiler service)
Text: as §1

PASK = target: T16, PASK (Homo sapiens, UniProt Q96RG2); test: KinaseProfiler PASK
T16 construct: purchased Millipore, Inc. (KinaseProfiler service)
Text: as §1

CAMK1 = target: T17, CAMK1 (Homo sapiens, UniProt Q14012); test: KinaseProfiler CAMK1
T17 construct: purchased Millipore (KinaseProfiler service)
Text: as §1

ROCK-II = target: T18, ROCK-II (Homo sapiens, UniProt O75116); test: KinaseProfiler ROCK-II
T18 construct: purchased Millipore, Inc. (KinaseProfiler service)
Text: as §1

mTOR/FKBP12 = target: T19, mTOR/FKBP12 (Homo sapiens, UniProt P42345); test: KinaseProfiler mTOR/FKBP12
T19 construct: purchased Millipore, Inc. (KinaseProfiler service)
Text: as §1

IGF-1R Activated = target: T20, IGF-1R Activated (Homo sapiens, UniProt P08069); test: KinaseProfiler IGF-1R Activated
T20 construct: purchased Millipore, Inc. (KinaseProfiler service)
Text: as §1

MAPKAP-K3 = target: T21, MAPKAP-K3 (Homo sapiens, UniProt Q16644); test: KinaseProfiler MAPKAP-K3
T21 construct: purchased Millipore, Inc. (KinaseProfiler service)
T21 sequence (Q16644 whole entry): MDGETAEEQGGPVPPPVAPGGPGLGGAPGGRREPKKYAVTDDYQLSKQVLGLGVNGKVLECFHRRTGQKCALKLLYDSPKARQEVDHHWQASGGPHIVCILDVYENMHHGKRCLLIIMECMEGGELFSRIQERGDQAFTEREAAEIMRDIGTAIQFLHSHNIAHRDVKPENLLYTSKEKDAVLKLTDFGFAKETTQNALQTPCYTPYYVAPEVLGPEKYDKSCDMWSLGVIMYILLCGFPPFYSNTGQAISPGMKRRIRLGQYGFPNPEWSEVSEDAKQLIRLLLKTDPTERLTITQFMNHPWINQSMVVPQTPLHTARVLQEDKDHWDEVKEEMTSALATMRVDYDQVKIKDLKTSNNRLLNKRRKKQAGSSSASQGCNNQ
Text: as §1

Rsk3 = target: T22, Rsk3 (Homo sapiens, UniProt Q15349); test: KinaseProfiler Rsk3
T22 construct: purchased Millipore, Inc. (KinaseProfiler service)
Text: as §1

PDK1 = target: T23, PDK1 (Homo sapiens, UniProt O15530); test: KinaseProfiler PDK1
T23 construct: purchased Millipore, Inc. (KinaseProfiler service)
Text: as §1

Ros = target: T24, Ros (Homo sapiens, UniProt P08922); test: KinaseProfiler Ros
T24 construct: purchased Millipore, Inc. (KinaseProfiler service)
Text: as §1

MuSK = target: T25, MuSK (Homo sapiens, UniProt O15146); test: KinaseProfiler MuSK
T25 construct: purchased Millipore, Inc. (KinaseProfiler service)
T25 sequence (O15146 24-869): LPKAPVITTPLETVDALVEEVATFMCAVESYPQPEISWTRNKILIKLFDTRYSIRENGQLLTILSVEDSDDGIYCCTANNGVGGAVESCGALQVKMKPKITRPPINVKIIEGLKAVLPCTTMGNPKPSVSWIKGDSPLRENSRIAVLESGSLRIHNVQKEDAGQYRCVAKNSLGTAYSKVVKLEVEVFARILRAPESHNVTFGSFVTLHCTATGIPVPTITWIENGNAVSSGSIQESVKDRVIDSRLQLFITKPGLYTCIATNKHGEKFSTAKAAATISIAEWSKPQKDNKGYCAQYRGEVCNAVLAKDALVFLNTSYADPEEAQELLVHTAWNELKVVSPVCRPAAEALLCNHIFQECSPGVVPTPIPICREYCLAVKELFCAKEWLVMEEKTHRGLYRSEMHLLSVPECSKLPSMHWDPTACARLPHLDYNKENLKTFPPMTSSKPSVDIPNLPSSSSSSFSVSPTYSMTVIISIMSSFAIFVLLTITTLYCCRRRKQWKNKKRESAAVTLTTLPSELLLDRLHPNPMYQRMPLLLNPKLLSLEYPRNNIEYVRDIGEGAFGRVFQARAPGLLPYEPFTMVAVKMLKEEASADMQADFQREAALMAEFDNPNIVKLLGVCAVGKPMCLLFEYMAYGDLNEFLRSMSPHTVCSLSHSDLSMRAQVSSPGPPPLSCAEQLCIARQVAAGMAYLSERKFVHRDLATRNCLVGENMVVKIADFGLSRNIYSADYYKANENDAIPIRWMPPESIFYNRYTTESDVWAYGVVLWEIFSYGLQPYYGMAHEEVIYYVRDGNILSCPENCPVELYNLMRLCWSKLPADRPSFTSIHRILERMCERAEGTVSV
Text: as §1

PAK2 = target: T26, PAK2 (Homo sapiens, UniProt Q13177); test: KinaseProfiler PAK2
T26 construct: purchased Millipore, Inc. (KinaseProfiler service)
Text: as §1

Met = target: T27, Met (Homo sapiens, UniProt P08581); test: KinaseProfiler Met
T27 construct: purchased Millipore, Inc. (KinaseProfiler service)
T27 sequence (P08581 25-1390): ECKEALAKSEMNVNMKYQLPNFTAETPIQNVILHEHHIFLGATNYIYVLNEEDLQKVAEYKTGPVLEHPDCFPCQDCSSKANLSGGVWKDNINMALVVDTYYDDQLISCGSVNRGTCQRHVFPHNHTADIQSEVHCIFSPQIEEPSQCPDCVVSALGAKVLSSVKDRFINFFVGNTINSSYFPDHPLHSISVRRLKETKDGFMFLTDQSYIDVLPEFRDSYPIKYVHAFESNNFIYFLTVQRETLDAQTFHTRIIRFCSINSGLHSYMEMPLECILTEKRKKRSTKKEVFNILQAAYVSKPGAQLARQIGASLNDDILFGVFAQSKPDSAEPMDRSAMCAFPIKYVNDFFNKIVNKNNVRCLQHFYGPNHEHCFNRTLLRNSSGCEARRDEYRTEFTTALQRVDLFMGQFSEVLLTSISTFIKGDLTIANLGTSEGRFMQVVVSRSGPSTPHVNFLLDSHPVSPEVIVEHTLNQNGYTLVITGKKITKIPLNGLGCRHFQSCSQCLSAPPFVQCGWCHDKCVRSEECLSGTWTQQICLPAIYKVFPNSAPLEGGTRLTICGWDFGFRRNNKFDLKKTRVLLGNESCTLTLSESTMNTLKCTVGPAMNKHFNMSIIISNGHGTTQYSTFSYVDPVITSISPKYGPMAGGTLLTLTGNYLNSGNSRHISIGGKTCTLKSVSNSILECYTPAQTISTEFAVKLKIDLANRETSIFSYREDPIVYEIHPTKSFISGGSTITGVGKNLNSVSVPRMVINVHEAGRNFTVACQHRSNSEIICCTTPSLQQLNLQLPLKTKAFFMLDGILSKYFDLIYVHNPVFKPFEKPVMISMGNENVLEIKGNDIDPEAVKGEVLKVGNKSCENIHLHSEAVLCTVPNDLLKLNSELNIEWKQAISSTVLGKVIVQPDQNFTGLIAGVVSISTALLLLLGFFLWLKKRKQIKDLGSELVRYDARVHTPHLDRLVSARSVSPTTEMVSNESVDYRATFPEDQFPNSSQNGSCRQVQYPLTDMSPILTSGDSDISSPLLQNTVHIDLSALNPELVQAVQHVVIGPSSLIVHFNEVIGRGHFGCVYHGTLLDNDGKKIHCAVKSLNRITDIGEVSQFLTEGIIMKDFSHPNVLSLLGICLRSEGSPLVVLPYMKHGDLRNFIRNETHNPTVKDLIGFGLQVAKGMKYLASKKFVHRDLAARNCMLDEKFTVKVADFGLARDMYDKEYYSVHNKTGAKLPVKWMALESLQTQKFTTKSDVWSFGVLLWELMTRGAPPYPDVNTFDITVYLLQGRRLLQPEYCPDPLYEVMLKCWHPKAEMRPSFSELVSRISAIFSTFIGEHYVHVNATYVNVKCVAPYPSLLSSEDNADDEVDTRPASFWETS
Text: as §1

EphA3 = target: T28, EphA3 (Homo sapiens, UniProt P29320); test: KinaseProfiler EphA3
T28 construct: purchased Millipore, Inc. (KinaseProfiler service)
T28 sequence (P29320 21-983): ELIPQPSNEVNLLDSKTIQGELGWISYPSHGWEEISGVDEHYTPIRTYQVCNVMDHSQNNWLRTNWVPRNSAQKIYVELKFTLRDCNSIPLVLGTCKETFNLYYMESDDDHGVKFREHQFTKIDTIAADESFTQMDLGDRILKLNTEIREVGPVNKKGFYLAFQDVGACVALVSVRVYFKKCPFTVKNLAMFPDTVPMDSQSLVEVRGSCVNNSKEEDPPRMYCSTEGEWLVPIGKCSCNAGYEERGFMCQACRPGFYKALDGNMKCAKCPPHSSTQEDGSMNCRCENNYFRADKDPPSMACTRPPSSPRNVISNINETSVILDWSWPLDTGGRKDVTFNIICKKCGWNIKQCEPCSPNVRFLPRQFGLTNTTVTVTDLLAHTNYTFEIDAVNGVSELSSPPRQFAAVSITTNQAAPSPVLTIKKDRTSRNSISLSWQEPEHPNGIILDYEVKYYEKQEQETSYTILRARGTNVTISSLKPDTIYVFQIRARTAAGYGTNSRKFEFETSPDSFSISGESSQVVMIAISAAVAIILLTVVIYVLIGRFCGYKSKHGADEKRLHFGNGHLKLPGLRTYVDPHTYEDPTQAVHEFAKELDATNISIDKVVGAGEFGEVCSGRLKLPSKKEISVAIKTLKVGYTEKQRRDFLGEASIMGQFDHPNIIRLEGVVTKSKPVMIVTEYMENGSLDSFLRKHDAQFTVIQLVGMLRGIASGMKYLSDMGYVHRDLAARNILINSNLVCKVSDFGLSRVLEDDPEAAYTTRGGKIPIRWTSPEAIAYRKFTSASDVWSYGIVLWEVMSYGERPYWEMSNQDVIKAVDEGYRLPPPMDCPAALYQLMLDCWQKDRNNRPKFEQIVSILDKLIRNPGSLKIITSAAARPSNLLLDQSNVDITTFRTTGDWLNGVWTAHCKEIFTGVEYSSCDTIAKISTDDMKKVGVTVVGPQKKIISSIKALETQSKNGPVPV
Text: as §1

ALK = target: T29, ALK (Homo sapiens, UniProt Q9UM73); test: KinaseProfiler ALK
T29 construct: purchased Millipore (KinaseProfiler service)
Text: as §1

TAK1 = target: T30, TAK1 (Homo sapiens, UniProt O43318); test: KinaseProfiler TAK1
T30 construct: purchased Millipore, Inc. (KinaseProfiler service)
Text: as §1

AURKA = target: T31, AURKA (Homo sapiens, UniProt O14965); test: KinaseProfiler AURKA
T31 construct: purchased Millipore (KinaseProfiler service)
Text: as §1

BrSK2 = target: T32, BrSK2 (Homo sapiens, UniProt Q8IWQ3); test: KinaseProfiler BrSK2
T32 construct: purchased Millipore (KinaseProfiler service)
Text: as §1

PKD1 = target: T33, PKD1 (Homo sapiens, UniProt Q15139); test: KinaseProfiler PKD1
T33 construct: purchased Millipore, Inc. (KinaseProfiler service)
Text: as §1

AKT2 = target: T34, AKT2 (Homo sapiens, UniProt P31751); test: KinaseProfiler AKT2
T34 construct: purchased Millipore (KinaseProfiler service)
Text: as §1

Rsk2 = target: T35, Rsk2 (Homo sapiens, UniProt P51812); test: KinaseProfiler Rsk2
T35 construct: purchased Millipore, Inc. (KinaseProfiler service)
Text: as §1

CAMK1d = target: T36, CAMK1d (Homo sapiens, UniProt Q8IU85); test: KinaseProfiler CAMK1d
T36 construct: purchased Millipore (KinaseProfiler service)
Text: as §1

LKB1 = target: T37, LKB1 (Homo sapiens, UniProt Q15831); test: KinaseProfiler LKB1
T37 construct: purchased Millipore, Inc. (KinaseProfiler service)
T37 sequence (Q15831 whole entry): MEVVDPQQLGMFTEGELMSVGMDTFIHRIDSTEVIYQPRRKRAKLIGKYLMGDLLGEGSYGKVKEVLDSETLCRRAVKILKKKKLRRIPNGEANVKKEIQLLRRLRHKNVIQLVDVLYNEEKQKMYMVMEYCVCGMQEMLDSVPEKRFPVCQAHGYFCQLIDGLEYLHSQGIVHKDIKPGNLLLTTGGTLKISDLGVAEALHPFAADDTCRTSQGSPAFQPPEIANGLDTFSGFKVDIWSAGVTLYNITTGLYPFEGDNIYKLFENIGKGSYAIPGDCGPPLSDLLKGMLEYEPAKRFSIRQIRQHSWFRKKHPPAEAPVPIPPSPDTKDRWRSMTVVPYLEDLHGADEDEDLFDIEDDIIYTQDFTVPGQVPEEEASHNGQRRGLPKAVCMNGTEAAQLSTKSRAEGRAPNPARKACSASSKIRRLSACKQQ
T37 sequence (Q7RTN6 whole entry partner): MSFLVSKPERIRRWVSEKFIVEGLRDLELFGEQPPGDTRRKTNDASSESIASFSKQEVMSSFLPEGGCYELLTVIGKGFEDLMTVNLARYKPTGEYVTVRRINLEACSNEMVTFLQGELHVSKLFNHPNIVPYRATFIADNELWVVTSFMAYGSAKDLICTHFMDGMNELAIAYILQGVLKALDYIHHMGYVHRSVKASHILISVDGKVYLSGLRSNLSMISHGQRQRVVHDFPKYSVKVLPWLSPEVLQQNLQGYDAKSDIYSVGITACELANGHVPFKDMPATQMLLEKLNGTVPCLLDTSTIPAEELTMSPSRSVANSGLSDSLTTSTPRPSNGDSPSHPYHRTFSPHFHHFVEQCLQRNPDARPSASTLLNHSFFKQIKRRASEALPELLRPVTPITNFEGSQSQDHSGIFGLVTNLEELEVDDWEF
T37 sequence (Q9Y376 whole entry partner): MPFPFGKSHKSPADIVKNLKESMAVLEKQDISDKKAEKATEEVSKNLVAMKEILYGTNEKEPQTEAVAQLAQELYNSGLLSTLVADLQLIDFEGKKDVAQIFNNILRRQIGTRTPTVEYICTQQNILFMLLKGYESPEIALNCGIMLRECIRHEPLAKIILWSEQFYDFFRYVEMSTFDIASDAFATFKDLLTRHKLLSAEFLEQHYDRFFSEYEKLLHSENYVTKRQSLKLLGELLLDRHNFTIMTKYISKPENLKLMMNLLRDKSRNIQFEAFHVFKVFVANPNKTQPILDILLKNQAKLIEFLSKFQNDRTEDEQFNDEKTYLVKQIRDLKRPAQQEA
Text: as §1

Pim-3 = target: T38, Pim-3 (Homo sapiens, UniProt Q86V86); test: KinaseProfiler Pim-3
T38 construct: purchased Millipore, Inc. (KinaseProfiler service)
Text: as §1

JAK3 = target: T39, JAK3 (Homo sapiens, UniProt P52333); test: KinaseProfiler JAK3
T39 construct: purchased Millipore, Inc. (KinaseProfiler service)
Text: as §1

CDK7/cyclinH/MAT1 = target: T40, CDK7/cyclinH/MAT1 (Homo sapiens, UniProt P50613); test: KinaseProfiler CDK7/cyclinH/MAT1
T40 construct: purchased Millipore, Inc. (KinaseProfiler service)
Text: as §1

p38delta = target: T41, p38delta (Homo sapiens, UniProt O15264); test: KinaseProfiler p38delta
T41 construct: purchased Millipore, Inc. (KinaseProfiler service)
Text: as §1

MARK2 = target: T42, MARK2 (Homo sapiens, UniProt Q7KZI7); test: KinaseProfiler MARK2
T42 construct: purchased Millipore, Inc. (KinaseProfiler service)
Text: as §1

PRKG1alpha = target: T43, PRKG1alpha (Homo sapiens, UniProt Q13976); test: KinaseProfiler PRKG1alpha
T43 construct: purchased Millipore, Inc. (KinaseProfiler service)
Text: as §1

Cc1c(-c2cnn(C)c2)nn(-c2ccccc2)c1NC(=O)Nc1cc(C(F)(F)F)nn1-c1ccccc1 [Example 3, 1-(1′,4-dimethyl-1-phenyl-1H,1′H-[3,4′-bipyrazol]-5-yl)-3-(1-phenyl-3-(trifluoromethyl)-1H-pyrazol-5-yl)urea]
Avg POC (Plk2): 106 POC
Avg POC (Fms): 91.5 POC
Avg POC (PKCepsilon): 98 POC
Avg POC (p38alpha): 93 POC
Avg POC (Rsk1): 123 POC
Avg POC (PAK4): 103 POC
Avg POC (Axl): 117 POC
Avg POC (FGFR2): 110 POC
Avg POC (DCAMKL2): 222.5 POC
Avg POC (IKKalpha): 127 POC
Avg POC (ERK2): 116 POC
Avg POC (MAP4K2): 113 POC
Avg POC (IR Activated): 99.5 POC
Avg POC (CK1gamma3): 125 POC
Avg POC (TBK1): 103 POC
Avg POC (PASK): 147 POC
Avg POC (CAMK1): 103.5 POC
Avg POC (ROCK-II): 110 POC
Avg POC (mTOR/FKBP12): 92.5 POC
Avg POC (IGF-1R Activated): 87 POC
Avg POC (MAPKAP-K3): 128.5 POC
Avg POC (Rsk3): 104.5 POC
Avg POC (PDK1): 123 POC
Avg POC (Ros): 97 POC
Avg POC (MuSK): 82.5 POC
Avg POC (PAK2): 98 POC
Avg POC (Met): 129 POC
Avg POC (EphA3): 128.5 POC
Avg POC (ALK): 110 POC
Avg POC (TAK1): 94 POC
Avg POC (AURKA): 121 POC
Avg POC (BrSK2): 135 POC
Avg POC (PKD1): 100.5 POC
Avg POC (AKT2): 219.5 POC
Avg POC (Rsk2): 134 POC
Avg POC (CAMK1d): 138 POC
Avg POC (LKB1): 95.5 POC
Avg POC (Pim-3): 107.5 POC
Avg POC (JAK3): 117.5 POC
Avg POC (CDK7/cyclinH/MAT1): 120.5 POC
Avg POC (p38delta): 92.5 POC
Avg POC (MARK2): 106.5 POC
Avg POC (PRKG1alpha): 108 POC
